From US7022738B2, “α-ketoamide derivative and use thereof” (Senju Pharmaceutical Co., Ltd., priority 2002, dated 2006) come the findings set out here.

A short description of data set [1]: Permeability test with Caco-2 cells. Type of data set: in vitro ADME. To be noted: human, Caco-2 monolayer, apical to basolateral, 30 and 60 minutes, read-out: apparent permeation coefficient (Papp). The procedure:
Permeability Test with Caco-2 Cells
0.5×10^6/cm^2 of Caco-2 cells (ATCC Catalog No. HTB-37, Manassas, Va., USA) were seeded into Transwell (polycarbonate filter: pore diameter 0.4 μm; culture area 0.33 cm^2; available from Costar Co.), and incubated in Dulbecco's modified Eagle's minimum essential medium (DMEM; available from Fisher Scientific International Inc.) for 21 to 30 days under the conditions of 37° C., 5% CO2 and 95% relative humidity, whereby a monolayer cell was prepared. The confluence of such a monolayer cell was evaluated by measuring trans epithelial electronic resistance (TEER). […] Based on the quantification results, apparent permeation coefficient (Papp) was calculated according to the formula: Papp=(δQ/δt)×(1/60AC0). • Papp: apparent permeation coefficient (cm/sec) • δQ/δt: permeation velocity (pmol/min) • A: area of monolayer cell=0.33 cm^2 • C0: initial concentration at apical membrane side (pmol/mL)

In turn, `CCCCNC(=O)C(=O)[C@H](CC(C)C)NC(=O)[C@@H](NS(=O)(=O)c1ccc(F)cc1)C(C)C` [Compound 1, (3S)-N-Butyl-3-((2S)-2-(((4-fluorophenyl)sulfonyl)amino)-3-methylbutanoylamino)-5-methyl-2-oxohexanamide] had a melting point of 107.6 to 109.9 °C. Also, in data set [1], the Papp A→B at 60 min, 10 μM was 17 ×10⁻⁶ cm/s.
